Activity calls are given as the source filed them. No cut-off for these calls is given here.
Assays:
Cryptosporidium parvum [1] = assay: Antiparasitic activity against Cryptosporidium parvum Iowa oocyst infected in human HCT-8 cells assessed as reduction in asexual replication pre-infected with cells for 3 hrs followed by compound addition and measured after 48 hrs by staining based automated fluorescence microscopic analysis; assay type: functional, organism-based
HCT-8 [2] = assay: Cytotoxicity against human HCT-8 cells assessed as reduction in cell numbers upto 50 uM incubated for 48 hrs by high-density microscopic celltiter aqueous assay; assay type: toxicity, cell-based; conditions: hct-8, 48 h
Cytochrome P450 2B6 = Cytochrome P450 2B6 (Homo sapiens, UniProt P20813); assay: Inhibition of CYP2B6 (unknown origin) incubated for 20 mins by fast gradient LC-MS analysis
Homo sapiens [3] = species: Homo sapiens; assay: Inhibition of human PDE1B at 10 uM by Eurofins kinase assay relative to control
[4] = biological target: cGMP-dependent 3',5'-cyclic phosphodiesterase (Homo sapiens) (UniProt O00408); assay: Inhibition of human PDE2A1 at 10 uM by Eurofins kinase assay relative to control
[5] = biological target: cGMP-inhibited 3',5'-cyclic phosphodiesterase 3A (Homo sapiens) (UniProt Q14432); assay: Inhibition of human PDE3A at 10 uM by Eurofins kinase assay relative to control
[6] = biological target: cGMP-inhibited 3',5'-cyclic phosphodiesterase 3B (Homo sapiens) (UniProt Q13370); assay: Inhibition of human PDE3B at 10 uM by Eurofins kinase assay relative to control
Chain of cGMP-inhibited 3',5'-cyclic phosphodiesterase 3B (Homo sapiens) (Q13370 whole entry, looked up): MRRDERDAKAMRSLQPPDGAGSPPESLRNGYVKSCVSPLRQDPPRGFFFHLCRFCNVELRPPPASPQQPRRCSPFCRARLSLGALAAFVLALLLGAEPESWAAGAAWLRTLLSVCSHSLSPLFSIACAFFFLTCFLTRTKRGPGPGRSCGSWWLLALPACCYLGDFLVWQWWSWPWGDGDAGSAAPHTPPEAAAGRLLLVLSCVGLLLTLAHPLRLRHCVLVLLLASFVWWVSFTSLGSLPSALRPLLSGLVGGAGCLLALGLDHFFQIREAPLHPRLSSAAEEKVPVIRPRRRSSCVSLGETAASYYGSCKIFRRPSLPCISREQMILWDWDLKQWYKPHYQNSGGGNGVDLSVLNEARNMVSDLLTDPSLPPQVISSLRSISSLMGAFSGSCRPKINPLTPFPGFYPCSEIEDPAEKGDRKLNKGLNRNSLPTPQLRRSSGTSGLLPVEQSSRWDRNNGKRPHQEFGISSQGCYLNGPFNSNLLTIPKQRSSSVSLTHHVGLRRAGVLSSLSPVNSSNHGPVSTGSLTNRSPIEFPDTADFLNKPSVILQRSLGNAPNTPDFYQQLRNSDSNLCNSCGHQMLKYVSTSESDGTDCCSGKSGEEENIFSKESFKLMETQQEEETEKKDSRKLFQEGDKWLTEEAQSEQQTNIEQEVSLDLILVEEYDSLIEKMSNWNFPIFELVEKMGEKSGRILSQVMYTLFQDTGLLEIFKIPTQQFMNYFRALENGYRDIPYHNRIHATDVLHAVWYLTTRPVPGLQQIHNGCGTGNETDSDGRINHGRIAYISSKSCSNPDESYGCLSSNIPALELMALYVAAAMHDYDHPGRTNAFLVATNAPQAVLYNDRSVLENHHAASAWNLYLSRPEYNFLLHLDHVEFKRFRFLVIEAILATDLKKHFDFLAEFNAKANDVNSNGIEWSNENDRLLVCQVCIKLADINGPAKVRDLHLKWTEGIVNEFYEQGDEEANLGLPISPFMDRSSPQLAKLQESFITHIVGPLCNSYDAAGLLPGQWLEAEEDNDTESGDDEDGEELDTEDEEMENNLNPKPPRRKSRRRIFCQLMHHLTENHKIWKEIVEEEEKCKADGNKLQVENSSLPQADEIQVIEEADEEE

Homo sapiens [7] = species: Homo sapiens; assay: Inhibition of human PDE4A1A at 10 uM by Eurofins kinase assay relative to control
[8] = biological target: 3',5'-cyclic-AMP phosphodiesterase 4B (Homo sapiens) (UniProt Q07343); assay: Inhibition of human PDE4B1 at 10 uM by Eurofins kinase assay relative to control
Chain of 3',5'-cyclic-AMP phosphodiesterase 4B (Homo sapiens) (Q07343 whole entry): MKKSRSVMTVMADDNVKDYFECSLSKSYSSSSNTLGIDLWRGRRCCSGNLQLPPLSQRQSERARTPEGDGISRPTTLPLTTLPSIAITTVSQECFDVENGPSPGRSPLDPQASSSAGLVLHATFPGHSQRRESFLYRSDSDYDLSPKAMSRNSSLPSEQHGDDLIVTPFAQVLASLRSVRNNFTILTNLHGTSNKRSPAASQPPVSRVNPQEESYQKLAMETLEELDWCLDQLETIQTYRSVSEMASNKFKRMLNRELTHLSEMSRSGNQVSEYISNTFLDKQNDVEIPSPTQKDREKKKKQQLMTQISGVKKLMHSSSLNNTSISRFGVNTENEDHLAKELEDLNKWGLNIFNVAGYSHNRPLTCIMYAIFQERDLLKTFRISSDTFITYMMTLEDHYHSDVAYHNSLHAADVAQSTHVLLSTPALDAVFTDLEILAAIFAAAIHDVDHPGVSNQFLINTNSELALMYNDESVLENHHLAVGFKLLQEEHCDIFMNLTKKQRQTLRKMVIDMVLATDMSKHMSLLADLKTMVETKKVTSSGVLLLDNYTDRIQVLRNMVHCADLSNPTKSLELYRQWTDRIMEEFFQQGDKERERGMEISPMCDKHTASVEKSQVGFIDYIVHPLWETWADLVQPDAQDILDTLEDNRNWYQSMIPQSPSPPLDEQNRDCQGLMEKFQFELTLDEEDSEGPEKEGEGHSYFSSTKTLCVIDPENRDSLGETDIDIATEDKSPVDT

[9] = biological target: 3',5'-cyclic-AMP phosphodiesterase 4D (Homo sapiens, UniProt Q08499); assay: Inhibition of human PDE4D2 at 10 uM by Eurofins kinase assay relative to control
Chain of 3',5'-cyclic-AMP phosphodiesterase 4D (Q08499 whole entry): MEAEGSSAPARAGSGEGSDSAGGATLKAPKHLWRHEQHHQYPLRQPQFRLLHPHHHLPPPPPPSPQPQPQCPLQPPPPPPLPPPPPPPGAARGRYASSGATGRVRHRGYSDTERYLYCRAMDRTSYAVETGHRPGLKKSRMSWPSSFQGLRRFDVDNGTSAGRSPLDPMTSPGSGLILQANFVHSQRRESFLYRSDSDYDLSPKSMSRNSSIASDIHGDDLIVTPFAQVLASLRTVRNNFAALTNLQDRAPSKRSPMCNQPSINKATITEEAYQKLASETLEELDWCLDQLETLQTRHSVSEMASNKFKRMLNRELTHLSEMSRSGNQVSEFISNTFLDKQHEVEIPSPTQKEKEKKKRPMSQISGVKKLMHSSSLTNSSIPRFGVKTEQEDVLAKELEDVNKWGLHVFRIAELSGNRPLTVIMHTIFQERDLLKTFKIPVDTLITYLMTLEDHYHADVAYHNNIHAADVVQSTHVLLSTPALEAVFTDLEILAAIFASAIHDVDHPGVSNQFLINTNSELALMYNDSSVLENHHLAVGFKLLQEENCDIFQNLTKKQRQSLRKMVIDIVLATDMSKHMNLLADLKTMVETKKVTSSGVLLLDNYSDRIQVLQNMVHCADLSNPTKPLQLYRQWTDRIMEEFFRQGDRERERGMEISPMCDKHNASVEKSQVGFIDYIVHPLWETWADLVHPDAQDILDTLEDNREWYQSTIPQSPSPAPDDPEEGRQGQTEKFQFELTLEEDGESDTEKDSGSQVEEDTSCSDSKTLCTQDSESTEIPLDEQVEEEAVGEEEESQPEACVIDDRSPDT

[10] = biological target: cGMP-specific 3',5'-cyclic phosphodiesterase (Homo sapiens) (UniProt O76074); assay: Inhibition of human PDE5 at 10 uM by Eurofins kinase assay relative to control
Homo sapiens [11] = species: Homo sapiens; assay: Inhibition of human PDE6 at 10 uM by Eurofins kinase assay relative to control
[12] = biological target: High affinity 3',5'-cyclic-AMP phosphodiesterase 7A (Homo sapiens) (UniProt Q13946); assay: Inhibition of human PDE7A1 at 10 uM by Eurofins kinase assay relative to control
Chain of High affinity 3',5'-cyclic-AMP phosphodiesterase 7A (Homo sapiens) (Q13946 whole entry): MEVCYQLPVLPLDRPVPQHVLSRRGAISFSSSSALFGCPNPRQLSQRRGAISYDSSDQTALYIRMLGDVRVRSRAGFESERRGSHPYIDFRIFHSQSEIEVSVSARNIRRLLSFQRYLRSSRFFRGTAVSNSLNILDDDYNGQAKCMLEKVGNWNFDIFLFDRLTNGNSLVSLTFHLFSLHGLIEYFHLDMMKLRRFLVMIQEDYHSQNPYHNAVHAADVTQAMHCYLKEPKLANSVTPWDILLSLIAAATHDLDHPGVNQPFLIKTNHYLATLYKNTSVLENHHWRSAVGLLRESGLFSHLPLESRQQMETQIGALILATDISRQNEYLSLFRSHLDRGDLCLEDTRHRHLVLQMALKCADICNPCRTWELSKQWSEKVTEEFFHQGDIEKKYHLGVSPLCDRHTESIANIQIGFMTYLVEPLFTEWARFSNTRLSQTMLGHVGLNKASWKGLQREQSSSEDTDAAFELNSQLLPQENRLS

[13] = biological target: High affinity cAMP-specific and IBMX-insensitive 3',5'-cyclic phosphodiesterase 8A (Homo sapiens) (UniProt O60658); assay: Inhibition of human PDE8A1 at 10 uM by Eurofins kinase assay relative to control
Chain of High affinity cAMP-specific and IBMX-insensitive 3',5'-cyclic phosphodiesterase 8A (Homo sapiens) (O60658 whole entry): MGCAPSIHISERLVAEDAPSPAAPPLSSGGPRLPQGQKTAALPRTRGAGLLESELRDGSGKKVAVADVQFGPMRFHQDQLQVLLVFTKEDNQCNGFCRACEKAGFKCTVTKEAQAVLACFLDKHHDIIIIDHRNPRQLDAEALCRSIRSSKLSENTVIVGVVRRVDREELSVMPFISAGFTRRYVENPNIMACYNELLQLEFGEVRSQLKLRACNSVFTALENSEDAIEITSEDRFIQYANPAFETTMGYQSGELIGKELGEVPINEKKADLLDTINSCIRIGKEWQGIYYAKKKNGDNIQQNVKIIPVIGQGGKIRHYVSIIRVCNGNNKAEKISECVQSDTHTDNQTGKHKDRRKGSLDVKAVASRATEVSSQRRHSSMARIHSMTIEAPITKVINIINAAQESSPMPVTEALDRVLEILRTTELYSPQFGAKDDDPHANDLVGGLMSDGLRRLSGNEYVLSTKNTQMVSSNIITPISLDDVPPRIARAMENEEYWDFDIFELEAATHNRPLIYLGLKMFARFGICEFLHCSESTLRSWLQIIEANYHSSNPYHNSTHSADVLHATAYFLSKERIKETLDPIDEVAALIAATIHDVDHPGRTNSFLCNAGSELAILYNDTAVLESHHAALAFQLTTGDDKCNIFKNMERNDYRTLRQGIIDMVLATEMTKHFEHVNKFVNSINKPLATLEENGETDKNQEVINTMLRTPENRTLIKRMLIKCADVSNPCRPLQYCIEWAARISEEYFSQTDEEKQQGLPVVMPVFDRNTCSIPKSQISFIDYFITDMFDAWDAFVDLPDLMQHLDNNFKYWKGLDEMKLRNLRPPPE

[14] = biological target: cAMP and cAMP-inhibited cGMP 3',5'-cyclic phosphodiesterase 10A (Homo sapiens) (UniProt Q9Y233); assay: Inhibition of human PDE10A2 at 10 uM by Eurofins kinase assay relative to control
Chain of cAMP and cAMP-inhibited cGMP 3',5'-cyclic phosphodiesterase 10A (Homo sapiens) (Q9Y233 whole entry): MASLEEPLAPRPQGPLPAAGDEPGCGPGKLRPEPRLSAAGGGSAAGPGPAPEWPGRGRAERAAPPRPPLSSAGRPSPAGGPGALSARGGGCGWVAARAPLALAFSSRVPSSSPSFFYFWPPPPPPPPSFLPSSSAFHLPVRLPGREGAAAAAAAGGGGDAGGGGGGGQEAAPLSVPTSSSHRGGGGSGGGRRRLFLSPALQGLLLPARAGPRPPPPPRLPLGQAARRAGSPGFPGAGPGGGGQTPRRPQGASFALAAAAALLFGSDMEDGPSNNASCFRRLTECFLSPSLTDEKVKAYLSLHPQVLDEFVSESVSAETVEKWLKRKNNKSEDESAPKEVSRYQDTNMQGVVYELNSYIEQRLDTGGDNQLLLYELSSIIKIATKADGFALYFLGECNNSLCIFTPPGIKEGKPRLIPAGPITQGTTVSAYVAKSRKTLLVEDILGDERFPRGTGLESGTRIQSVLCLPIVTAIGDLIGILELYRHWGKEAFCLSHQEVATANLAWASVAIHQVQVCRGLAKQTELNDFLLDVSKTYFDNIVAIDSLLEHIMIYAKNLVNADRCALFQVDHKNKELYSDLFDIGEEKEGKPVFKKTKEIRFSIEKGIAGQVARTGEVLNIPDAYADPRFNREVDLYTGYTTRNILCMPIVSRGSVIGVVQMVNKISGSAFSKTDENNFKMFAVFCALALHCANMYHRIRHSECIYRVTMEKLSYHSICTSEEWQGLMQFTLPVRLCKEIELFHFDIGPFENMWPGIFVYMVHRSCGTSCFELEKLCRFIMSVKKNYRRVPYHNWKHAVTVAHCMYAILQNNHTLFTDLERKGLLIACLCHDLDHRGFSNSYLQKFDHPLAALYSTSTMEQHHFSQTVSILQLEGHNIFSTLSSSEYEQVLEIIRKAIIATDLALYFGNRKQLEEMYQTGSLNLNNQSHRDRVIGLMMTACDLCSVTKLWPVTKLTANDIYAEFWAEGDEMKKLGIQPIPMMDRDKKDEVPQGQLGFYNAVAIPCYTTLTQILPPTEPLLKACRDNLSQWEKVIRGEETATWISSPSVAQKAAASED

Cryptosporidium parvum [15] = assay: Antiparasitic activity against Cryptosporidium parvum Iowa oocyst infected in NOD SCID gamma mouse model assessed as reduction in parasite fecal shedding at 50 mg/kg, po administered twice daily for 7 days starting from day 7 post infection and measured on day 21 by qPCR analysis; assay type: functional, organism-based; conditions: time 14.0 day
[16] = biological target: Dual 3',5'-cyclic-AMP and -GMP phosphodiesterase 11A (Homo sapiens) (UniProt Q9HCR9); assay: Inhibition of human PDE11A at 10 uM by Eurofins kinase assay relative to control
HCT-8 [17] = assay: Cytotoxicity against human HCT-8 cells assessed as inhibition of cell proliferation at 25 to 50 uM incubated for 48 hrs by Celltiter aqueous assay; assay type: toxicity, cell-based; conditions: hct-8, 48 h, dose 25-50 µM
HCT-8 [18] = assay: Cytotoxicity against human HCT-8 cells assessed as reduction in cell numbers at 25 uM incubated for 48 hrs by high-density microscopic celltiter aqueous assay relative to control; assay type: toxicity, cell-based; parameters: scale not given: the % may be the effect or the level left; conditions: hct-8, 48 h
HCT-8 [19] = assay: Cytotoxicity against human HCT-8 cells assessed as reduction in cell numbers at 50 uM incubated for 48 hrs by high-density microscopic celltiter aqueous assay relative to control; assay type: toxicity, cell-based; parameters: scale not given: the % may be the effect or the level left; conditions: hct-8, 48 h

Row | Compound | EC50 (Cryptosporidium parvum [1]) | Activity (HCT-8 [2]) | also measured
1 | CCc1nn(C)c2nc(-c3ccc(O)cc3)nc(NCc3ccc(F)cc3)c12 | 5 µM | Non-toxic | –
2 | COC(=O)[C@H](c1ccccc1Cl)N1CCc2sccc2C1 [CLOPIDOGREL] | – | – | IC50 (Cytochrome P450 2B6): 0.2 µM
3 | CCc1nn(C)c2nc(-c3cccc(C(=O)O)c3)nc(NCc3ccc(F)cc3)c12 | 1.2 µM | Non-toxic | –
4 | CCc1nn(C)c2nc(-c3cncnc3)nc(NCc3ccc(F)cc3)c12 | > 50 µM | Non-toxic | –
5 | CCc1nn(C)c2nc(-c3ccc4c(c3)COB4O)nc(NCc3ccc(F)cc3)c12 | – | Non-toxic | inhibition (Homo sapiens [3]): -7.2%; inhibition [4]: 32%; inhibition [5]: 17%; inhibition [6]: 8%; inhibition (Homo sapiens [7]): 54%; inhibition [8]: 73%; inhibition [9]: 27%; inhibition [10]: 80%; inhibition (Homo sapiens [11]): 63%; inhibition [12]: 23%; inhibition [13]: 20%; inhibition [14]: -5.5%; Activity (Cryptosporidium parvum [15]): Active
6 | CCc1nn(C)c2nc(-c3ccc(B(O)O)cc3)nc(NCc3ccc(F)cc3)c12 | 0.78 µM | Non-toxic | inhibition (Homo sapiens [3]): 31%; inhibition [4]: 95%; inhibition [5]: 62%; inhibition [6]: 45%; inhibition (Homo sapiens [7]): 93%; inhibition [8]: 96%; inhibition [9]: 91%; inhibition [10]: 73%; inhibition (Homo sapiens [11]): 98%; inhibition [12]: 62%; inhibition [13]: 29%; inhibition [14]: 24%; inhibition [16]: 82%; Activity (Cryptosporidium parvum [15]): Active
7 | CCc1nn(C)c2nc(-c3ccccc3OC)nc(NCc3ccc(F)cc3)c12 | 7.7 µM | Non-toxic | –
8 | CCc1nn(C)c2nc(-c3ccc(CC(=O)O)cc3)nc(NCc3ccc(F)cc3)c12 | 9.5 µM | Non-toxic | –
9 | CCc1nn(C)c2nc(-c3ccc(N4CCC(C(=O)O)CC4)cc3)nc(NCc3ccc(F)cc3)c12 | 11 µM | Non-toxic | –
10 | CCc1nn(C)c2nc(-c3ccc(P(=O)(O)O)cc3)nc(NCc3ccc(F)cc3)c12 | > 50 µM | Non-toxic | –
11 | CCOC(=O)c1cccc(-c2nc(NCc3ccc(F)cc3)c3c(CC)nn(C)c3n2)c1 | 5.5 µM | Non-toxic | –
12 | CCc1nn(C)c2nc(-c3ccc(C(N)=O)cc3)nc(NCc3ccc(F)cc3)c12 | 27 µM | Non-toxic | –
13 | CCc1nn(C)c2nc(-c3ccc(C4CCC(C(=O)O)CC4)cc3)nc(NCc3ccc(F)cc3)c12 (stereo not drawn) | 4.4 µM | Non-toxic | –
14 | CCc1nn(C)c2nc(-c3ccc(F)c(C(=O)O)c3)nc(NCc3ccc(F)cc3)c12 | 5.2 µM | Non-toxic | –
15 | CCc1nn(C)c2nc(-c3ccc4c(O)nn(C)c4c3)nc(NCc3ccc(F)cc3)c12 | 3 µM | Non-toxic | –
16 | CCc1nn(C)c2nc(-c3ccc(OC)cc3)nc(NCc3ccc(F)cc3)c12 | 15 µM | Non-toxic | –
17 | CCc1nn(C)c2nc(C(=O)O)nc(NCc3ccc(F)cc3)c12 | > 50 µM | Non-toxic | –
18 | CCc1nn(C)c2nc(-c3ccc(-c4nnn[nH]4)cc3)nc(NCc3ccc(F)cc3)c12 | 5.8 µM | Non-toxic | –
19 | CCc1nn(C)c2nc(-c3ccccc3)nc(NCc3ccc(F)cc3)c12 | 16 µM | Non-toxic | –
20 | CCc1nn(C)c2nc(-c3ccc(C(=O)O)c(F)c3)nc(NCc3ccc(F)cc3)c12 | 3.4 µM | Non-toxic | –
21 | CCc1nn(C)c2nc(-c3ccc4c(O)n[nH]c4c3)nc(NCc3ccc(F)cc3)c12 | 6.1 µM | – | Activity (HCT-8 [17]): Toxic; Activity (HCT-8 [18]): 78%; Activity (HCT-8 [19]): 89%

Row | Compound | EC50 (Cryptosporidium parvum [1]) | Activity (HCT-8 [2]) | also measured
22 | CCc1nn(C)c2nc(-c3ccc4c(c3)COC4=O)nc(NCc3ccc(F)cc3)c12 | > 50 µM | Non-toxic | –
23 | CCc1nn(C)c2nc(-c3ccc4c(c3)CNC4=O)nc(NCc3ccc(F)cc3)c12 | > 50 µM | Non-toxic | –
24 | CCc1nn(C)c2nc(-c3ccncc3)nc(NCc3ccc(F)cc3)c12 | 8.6 µM | Non-toxic | –
25 | CCc1nn(C)c2nc(-c3ccc(C#N)cc3)nc(NCc3ccc(F)cc3)c12 | > 25 µM | Non-toxic | –
26 | CCc1nn(C)c2ncnc(NCc3ccc(F)cc3)c12 | > 50 µM | Non-toxic | –
27 | CCc1nn(C)c2nc(-c3cccc(OC)c3)nc(NCc3ccc(F)cc3)c12 | 15 µM | Non-toxic | –
28 | CCc1nn(C)c2nc(-c3ccc(C(=O)O)nc3)nc(NCc3ccc(F)cc3)c12 | 4.7 µM | Non-toxic | –
29 | CCc1nn(C)c2nc(-c3ccc(C(=O)N4CCNCC4)cc3)nc(NCc3ccc(F)cc3)c12 | 5.7 µM | Non-toxic | –
30 | CCc1nn(C)c2nc(-c3ccc(OC)c(OC)c3)nc(NCc3ccc(F)cc3)c12 | 7.2 µM | Non-toxic | –
31 | CCc1nn(C)c2nc(-c3c(C)noc3C)nc(NCc3ccc(F)cc3)c12 | 4.5 µM | Non-toxic | –
32 | CCc1nn(C)c2nc(-c3ccc(Cl)c(Cl)c3)nc(NCc3ccc(F)cc3)c12 | 21 µM | Non-toxic | –
33 | CCc1nn(C)c2nc(-c3ccc(Nc4ccc(C(=O)O)cn4)cc3)nc(NCc3ccc(F)cc3)c12 | 2.9 µM | Non-toxic | –
34 | CCc1nn(C)c2nc(CCC(=O)O)nc(NCc3ccc(F)cc3)c12 | 9.3 µM | Non-toxic | –
35 | CCc1nn(C)c2nc(-c3cccc(S(N)(=O)=O)c3)nc(NCc3ccc(F)cc3)c12 | 2.5 µM | Non-toxic | –
36 | CCc1nn(C)c2nc(-c3ccc4c(c3)OCO4)nc(NCc3ccc(F)cc3)c12 | > 50 µM | Non-toxic | –
37 | CCc1nn(C)c2nc(-c3ccc(S(C)(=O)=O)cc3)nc(NCc3ccc(F)cc3)c12 | 5.5 µM | Non-toxic | –
38 | CCOC(=O)c1ccc(-c2nc(NCc3ccc(F)cc3)c3c(CC)nn(C)c3n2)cc1 | > 25 µM | Non-toxic | –
39 | CC(=O)Oc1ccccc1C(=O)Nc1ncc([N+](=O)[O-])s1 [NITAZOXANIDE] | – | Non-toxic | –
40 | CCc1nn(C)c2nc(C3=CCC(C(=O)O)CC3)nc(NCc3ccc(F)cc3)c12 (stereo not drawn) | 1.8 µM | Non-toxic | –
41 | CCc1nn(C)c2nc(-c3ccc(CO)cc3)nc(NCc3ccc(F)cc3)c12 | 16 µM | Non-toxic | –

— ChEMBL document CHEMBL6087459 (J Med Chem, 2025)
